Measurements: patent USRE48461E1, “Modulation of androgen receptor expression” (Ionis Pharmaceuticals, Inc., priority 2012, dated 2021)
Oligonucleotides are written 5' to 3', each unit as a sugar letter and its base; * is a phosphorothioate linkage, no mark a phosphodiester; rarer units and linkages stand in square brackets, end groups in braces. Plain capitals give the bases only. k = constrained ethyl (cEt); [5mC] = 5-methylcytosine; d = 2'-deoxy (DNA)

Key:
AR mRNA [1] = assay: Dose-dependent antisense inhibition of human AR in HuVEC cells (electroporation, qRT-PCR RTS3559, IC50); assay type: cell-based
Summary of the method: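 HuVEC cells dosed with antisense oligonucleotides by electroporation and treated approximately 16 hours. AR mRNA quantified by real-time qPCR with primer probe set RTS3559 and normalised to total RNA by RIBOGREEN; IC50 from dose-response.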

AR mRNA [2] = assay: Antisense inhibition of human AR in HuVEC cells, single concentration (electroporation, qRT-PCR RTS3559); assay type: cell-based
Summary of the method: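 HuVEC cells electroporated with antisense oligonucleotides at a single concentration. AR mRNA quantified by qRT-PCR using human primer-probe set RTS3559 and normalised to total RNA content by RIBOGREEN.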

Question: Which results are given for “549372 (kA*kA*kG*dT*dT*dG*dT*dA*dG*dT*dA*dG*dT*k[5mC]*kG*k[5mC]) [compound 549372]”?
Answer: percent inhibition of AR (AR mRNA [1]; 31.25 nM, HuVEC, ~16 h, Table 14): 2%; percent inhibition of AR (AR mRNA [1]; 46.9 nM, HuVEC, ~16 h, Table 15): 9%; percent inhibition of AR (AR mRNA [1]; 55.6 nM, HuVEC, ~16 h, Table 3): 22%; percent inhibition of AR (AR mRNA [1]; 62.5 nM, HuVEC, ~16 h, Table 14): 17%; percent inhibition of AR (AR mRNA [1]; 125.0 nM, HuVEC, ~16 h, Table 14): 31%; percent inhibition of AR (AR mRNA [1]; 166.7 nM, HuVEC, ~16 h, Table 3): 51%; percent inhibition of AR (AR mRNA [1]; 187.5 nM, HuVEC, ~16 h, Table 15): 41%; percent inhibition of AR (AR mRNA [1]; 500.0 nM, HuVEC, ~16 h, Table 3): 85%; percent inhibition of AR (AR mRNA [1]; 500.0 nM, HuVEC, ~16 h, Table 14): 61%; percent inhibition of AR (AR mRNA [1]; 750.0 nM, HuVEC, ~16 h, Table 15): 66%; percent inhibition of AR (AR mRNA [1]; 1000.0 nM, HuVEC, ~16 h, Table 14): 80%; percent inhibition of AR (AR mRNA [1]; 1500.0 nM, HuVEC, ~16 h, Table 3): 89%; percent inhibition of AR (AR mRNA [1]; 3000.0 nM, HuVEC, ~16 h, Table 15): 87%; IC50 (AR mRNA [1]; HuVEC cells, electroporation): 290 nM; inhibition of AR mRNA at 46.9 nM (AR mRNA [1]; HuVEC cells, electroporation, 46.9 nM ASO): 9%; inhibition of AR mRNA at 187.5 nM (AR mRNA [1]; HuVEC cells, electroporation, 187.5 nM ASO): 41%; inhibition of AR mRNA at 750.0 nM (AR mRNA [1]; HuVEC cells, electroporation, 750.0 nM ASO): 66%; inhibition of AR mRNA at 3000.0 nM (AR mRNA [1]; HuVEC cells, electroporation, 3000.0 nM ASO): 87%; IC50 (AR mRNA [1]; HuVEC, ~16 h, Table 3): 150 nM; IC50 (AR mRNA [1]; HuVEC, ~16 h, Table 14): 271 nM; IC50 (AR mRNA [1]; HuVEC, ~16 h, Table 15): 290 nM; percent inhibition of AR, 46.9 nM (AR mRNA [1]; Table 29, 46.9 nM, HuVEC, electroporation, approximately 16 hours): 7%; percent inhibition of AR, 187.5 nM (AR mRNA [1]; Table 29, 187.5 nM, HuVEC, electroporation, approximately 16 hours): 41%; percent inhibition of AR, 750.0 nM (AR mRNA [1]; Table 29, 750.0 nM, HuVEC, electroporation, approximately 16 hours): 70%; percent inhibition of AR, 3000.0 nM (AR mRNA [1]; Table 29, 3000.0 nM, HuVEC, electroporation, approximately 16 hours): 91%; IC50 (AR mRNA [1]; Table 29, HuVEC, electroporation, approximately 16 hours): 320 nM; percent inhibition of AR, 46.9 nM (AR mRNA [1]; Table 30, 46.9 nM, HuVEC, electroporation, approximately 16 hours): 13%; percent inhibition of AR, 187.5 nM (AR mRNA [1]; Table 30, 187.5 nM, HuVEC, electroporation, approximately 16 hours): 29%; percent inhibition of AR, 750.0 nM (AR mRNA [1]; Table 30, 750.0 nM, HuVEC, electroporation, approximately 16 hours): 69%; percent inhibition of AR, 3000.0 nM (AR mRNA [1]; Table 30, 3000.0 nM, HuVEC, electroporation, approximately 16 hours): 90%; IC50 (AR mRNA [1]; Table 30, HuVEC, electroporation, approximately 16 hours): 370 nM; percent inhibition of AR, 46.9 nM (AR mRNA [1]; Table 31, 46.9 nM, HuVEC, electroporation, approximately 16 hours): 5%; percent inhibition of AR, 187.5 nM (AR mRNA [1]; Table 31, 187.5 nM, HuVEC, electroporation, approximately 16 hours): 36%; percent inhibition of AR, 750.0 nM (AR mRNA [1]; Table 31, 750.0 nM, HuVEC, electroporation, approximately 16 hours): 69%; percent inhibition of AR, 3000.0 nM (AR mRNA [1]; Table 31, 3000.0 nM, HuVEC, electroporation, approximately 16 hours): 88%; IC50 (AR mRNA [1]; Table 31, HuVEC, electroporation, approximately 16 hours): 360 nM; percent inhibition of AR, 46.9 nM (AR mRNA [1]; Table 32, 46.9 nM, HuVEC, electroporation, approximately 16 hours): 15%; percent inhibition of AR, 187.5 nM (AR mRNA [1]; Table 32, 187.5 nM, HuVEC, electroporation, approximately 16 hours): 39%; percent inhibition of AR, 750.0 nM (AR mRNA [1]; Table 32, 750.0 nM, HuVEC, electroporation, approximately 16 hours): 70%; percent inhibition of AR, 3000.0 nM (AR mRNA [1]; Table 32, 3000.0 nM, HuVEC, electroporation, approximately 16 hours): 86%; IC50 (AR mRNA [1]; Table 32, HuVEC, electroporation, approximately 16 hours): 300 nM; percent inhibition of AR, 46.9 nM (AR mRNA [1]; Table 33, 46.9 nM, HuVEC, electroporation, approximately 16 hours): 14%; percent inhibition of AR, 187.5 nM (AR mRNA [1]; Table 33, 187.5 nM, HuVEC, electroporation, approximately 16 hours): 33%; percent inhibition of AR, 750.0 nM (AR mRNA [1]; Table 33, 750.0 nM, HuVEC, electroporation, approximately 16 hours): 64%; percent inhibition of AR, 3000.0 nM (AR mRNA [1]; Table 33, 3000.0 nM, HuVEC, electroporation, approximately 16 hours): 90%; IC50 (AR mRNA [1]; Table 33, HuVEC, electroporation, approximately 16 hours): 340 nM; percent inhibition of AR, 46.9 nM (AR mRNA [1]; Table 34, 46.9 nM, HuVEC, electroporation, approximately 16 hours): 14%; percent inhibition of AR, 187.5 nM (AR mRNA [1]; Table 34, 187.5 nM, HuVEC, electroporation, approximately 16 hours): 36%; percent inhibition of AR, 750.0 nM (AR mRNA [1]; Table 34, 750.0 nM, HuVEC, electroporation, approximately 16 hours): 64%; percent inhibition of AR, 3000.0 nM (AR mRNA [1]; Table 34, 3000.0 nM, HuVEC, electroporation, approximately 16 hours): 88%; IC50 (AR mRNA [1]; Table 34, HuVEC, electroporation, approximately 16 hours): 320 nM; percent inhibition of AR, 46.9 nM (AR mRNA [1]; Table 35, 46.9 nM, HuVEC, electroporation, approximately 16 hours): 0%; percent inhibition of AR, 187.5 nM (AR mRNA [1]; Table 35, 187.5 nM, HuVEC, electroporation, approximately 16 hours): 28%; percent inhibition of AR, 750.0 nM (AR mRNA [1]; Table 35, 750.0 nM, HuVEC, electroporation, approximately 16 hours): 64%; percent inhibition of AR, 3000.0 nM (AR mRNA [1]; Table 35, 3000.0 nM, HuVEC, electroporation, approximately 16 hours): 88%; IC50 (AR mRNA [1]; Table 35, HuVEC, electroporation, approximately 16 hours): 420 nM; percent inhibition of AR, 46.9 nM (AR mRNA [1]; Table 36, 46.9 nM, HuVEC, electroporation, approximately 16 hours): 2%; percent inhibition of AR, 187.5 nM (AR mRNA [1]; Table 36, 187.5 nM, HuVEC, electroporation, approximately 16 hours): 26%; percent inhibition of AR, 750.0 nM (AR mRNA [1]; Table 36, 750.0 nM, HuVEC, electroporation, approximately 16 hours): 61%; percent inhibition of AR, 3000.0 nM (AR mRNA [1]; Table 36, 3000.0 nM, HuVEC, electroporation, approximately 16 hours): 85%; IC50 (AR mRNA [1]; Table 36, HuVEC, electroporation, approximately 16 hours): 420 nM; % inhibition (AR mRNA [2]; 500 nM ASO, electroporation, ~24 h, Table 1): 92%; % inhibition (AR mRNA [2]; 500 nM ASO, ~24 h, Table 16): 47%; % inhibition (AR mRNA [2]; 500 nM ASO, ~24 h, Table 17): 40%; % inhibition (AR mRNA [2]; 500 nM ASO, ~24 h, Table 18): 26%; % inhibition (AR mRNA [2]; 1,000 nM ASO, ~24 h, Table 13): 64%; % inhibition (AR mRNA [2]; 1,000 nM ASO, ~24 h, Table 26): 58%; % inhibition (AR mRNA [2]; Table 19, 500 nM oligonucleotide, electroporation, approximately 24 hours, relative to untreated control): 39%; % inhibition (AR mRNA [2]; Table 20, 500 nM oligonucleotide, electroporation, approximately 24 hours, relative to untreated control): 23%; % inhibition (AR mRNA [2]; Table 21, 500 nM oligonucleotide, electroporation, approximately 24 hours, relative to untreated control): 37%; % inhibition (AR mRNA [2]; Table 22, 500 nM oligonucleotide, electroporation, approximately 24 hours, relative to untreated control): 46%; % inhibition (AR mRNA [2]; Table 23, 500 nM oligonucleotide, electroporation, approximately 24 hours, relative to untreated control): 25%; % inhibition (AR mRNA [2]; Table 24, 1,000 nM oligonucleotide, electroporation, approximately 24 hours, relative to untreated control): 63%; % inhibition (AR mRNA [2]; Table 25, 1,000 nM oligonucleotide, electroporation, approximately 24 hours, relative to untreated control): 59%; % inhibition (AR mRNA [2]; Table 27, 1,000 nM oligonucleotide, electroporation, approximately 24 hours, relative to untreated control): 70%; % inhibition (AR mRNA [2]; Table 28, 1,000 nM oligonucleotide, electroporation, approximately 24 hours, relative to untreated control): 54%
